In patent publication US11260023B2, “Topical compositions containing rofecoxib and methods of making and using the same” (BRIORI BIOTECH, LLC, priority 2020, dated 2022):

Assays:
[1] = Solubility of rofecoxib in various solvents by High Performance Liquid Chromatography; assay type: physicochemical
[2] = Stability of rofecoxib by HPLC after storage for two weeks at 40° C. and 50° C.; assay type: physicochemical
Experimental: The stability of rofecoxib was assessed by HPLC after storage for two weeks at 40° C. and for two weeks at 50° C.

[3] = in vivo; cited from earlier work

SMILES: CS(=O)(=O)c1ccc(C2=C(c3ccccc3)C(=O)OC2)cc1 [Rofecoxib]
- Solubility of Rofecoxib ([1]; in 1.25% Niacinamide (Aqueous), HPLC): No observable solubility
- Solubility of Rofecoxib ([1]; in 10% Sodium Lauryl Sulfate (Aqueous), HPLC): No observable solubility*
- Solubility of Rofecoxib ([1]; in Dehydrated Alcohol, HPLC): No observable solubility
- Solubility of Rofecoxib ([1]; in Diethyl Sebacate, HPLC): No observable solubility
- Solubility of Rofecoxib ([1]; in Diethylene Glycol Monoethyl Ether, HPLC): 0.5-1.0 % w/w
- Solubility of Rofecoxib ([1]; in Diisoproovl Adipate, HPLC): No observable solubility
- Solubility of Rofecoxib ([1]; in Dimethyl Isosorbide, HPLC): 2.5-3.5% w/w
- Solubility of Rofecoxib ([1]; in Ethyl Acetate, HPLC): <0.5% w/w
- Solubility of Rofecoxib ([1]; in Glycervl Monooleate, HPLC): No observable solubility
- Solubility of Rofecoxib ([1]; in Hydrochloric Acid (0.1 N), HPLC): No observable solubility
- Solubility of Rofecoxib ([1]; in Laureth-4, HPLC): No observable solubility
- Solubility of Rofecoxib ([1]; in Medium Chain Triglycerides, HPLC): No observable solubility
- Solubility of Rofecoxib ([1]; in N-Methvl-Pyrrolidone, HPLC): 4.4-5.4 % w/w
- Solubility of Rofecoxib ([1]; in Oleyl Alcohol, HPLC): No observable solubility
- Solubility of Rofecoxib ([1]; in PEG400, HPLC): 1.0-1.5 % w/w
- Solubility of Rofecoxib ([1]; in Polysorbate 80, HPLC): No observable solubility
- Solubility of Rofecoxib ([1]; in Propylene Carbonate, HPLC): 3.4-4.3 % w/w
- Solubility of Rofecoxib ([1]; in Propylene Glycol Diacetate, HPLC): <0.5 % w/w
- Solubility of Rofecoxib ([1]; in Sodium Hydroxide (0.1 N), HPLC): No observable solubility
- Solubility of Rofecoxib ([1]; in Sorbitol Solution, HPLC): No observable solubility
- Solubility of Rofecoxib ([1]; in Water pH 3, HPLC): No observable solubility
- Solubility of Rofecoxib ([1]; in Water pH 5.5, HPLC): No observable solubility
- Solubility of Rofecoxib ([1]; in Water pH 7.4, HPLC): No observable solubility
- Rofecoxib Concentration ([2]; Acetone, T = 0 weeks): 2.549 % w/w
- Rofecoxib Concentration ([2]; Acetone, T = 2 weeks 40° C. storage): 2.549 % w/w
- Rofecoxib Concentration ([2]; Acetone, T = 2 weeks 50° C. storage): 2.549 % w/w
- Rofecoxib Concentration ([2]; Benzyl alcohol, T = 0 weeks): 1.447 % w/w
- Rofecoxib Concentration ([2]; Benzyl alcohol, T = 2 weeks 40° C. storage): 1.474 % w/w
- Rofecoxib Concentration ([2]; Benzyl alcohol, T = 2 weeks 50° C. storage): 1.470 % w/w
- Rofecoxib Concentration ([2]; Diethylene glycol monoethyl ether, T = 0 weeks): 0.687 % w/w
- Rofecoxib Concentration ([2]; Diethylene glycol monoethyl ether, T = 2 weeks 40° C. storage): 0.672 % w/w
- Rofecoxib Concentration ([2]; Diethylene glycol monoethyl ether, T = 2 weeks 50° C. storage): 0.677 % w/w
- Rofecoxib Concentration ([2]; Dimethyl isosorbide, T = 0 weeks): 2.641 % w/w
- Rofecoxib Concentration ([2]; Dimethyl isosorbide, T = 2 weeks 40° C. storage): 2.515 % w/w
- Rofecoxib Concentration ([2]; Dimethyl isosorbide, T = 2 weeks 50° C. storage): 2.511 % w/w
- Rofecoxib Concentration ([2]; Ethyl acetate, T = 0 weeks): 0.465 % w/w
- Rofecoxib Concentration ([2]; Ethyl acetate, T = 2 weeks 40° C. storage): 0.479 % w/w
- Rofecoxib Concentration ([2]; Ethyl acetate, T = 2 weeks 50° C. storage): 0.476 % w/w
- Rofecoxib Concentration ([2]; N-methyl-2-pyrrolidone, T = 0 weeks): 5.046 % w/w
- Rofecoxib Concentration ([2]; N-methyl-2-pyrrolidone, T = 2 weeks 40° C. storage): 5.057 % w/w
- Rofecoxib Concentration ([2]; N-methyl-2-pyrrolidone, T = 2 weeks 50° C. storage): 5.055 % w/w
- Rofecoxib Concentration ([2]; PEG 400, T = 0 weeks): 1.013 % w/w
- Rofecoxib Concentration ([2]; PEG 400, T = 2 weeks 40° C. storage): 0.987 % w/w
- Rofecoxib Concentration ([2]; PEG 400, T = 2 weeks 50° C. storage): 0.993 % w/w
- Rofecoxib Concentration ([2]; Propylene Carbonate, T = 0 weeks): 3.471 % w/w
- Rofecoxib Concentration ([2]; Propylene Carbonate, T = 2 weeks 40° C. storage): 3.456 % w/w
- Rofecoxib Concentration ([2]; Propylene Carbonate, T = 2 weeks 50° C. storage): 3.463 % w/w
- Rofecoxib Concentration ([2]; Propylene Glycol Diacetate, T = 0 weeks): 0.519 % w/w
- Rofecoxib Concentration ([2]; Propylene Glycol Diacetate, T = 2 weeks 40° C. storage): 0.527 % w/w
- Rofecoxib Concentration ([2]; Propylene Glycol Diacetate, T = 2 weeks 50° C. storage): 0.520 % w/w
- solubility after storage ([2]; two weeks at 40° C. and 50° C., in the solvents in Table 12): remained soluble
- half-life [3]: 17 h
